Measurements from patent US11478471B2, “Methods and compositions for treating diabetes, metabolic syndrome and other conditions” (priority 2005, dated 2022).
In brackets after ≈: the same amount, converted by molar mass. Read-outs that look alike come from different tables or passages of the source.

What was measured:
[1] = dog, in vivo, po, 40 mg/kg/day
[2] = system: mouse L5178Y lymphoma cells; experiment: Mouse lymphoma assay, thymidine kinase locus; conditions: with and without S-9, up to toxic doses
[3] = system: CYP7A (cholesterol 7α hydroxylase); experiment: Inhibition of CYP7A, cholesterol 7α-hydroxylase activity (Rotstein et al. 1992); conditions: assuming intrahepatic concentration approximately 20% of total plasma concentration
[4] = system: P450 4A; conditions: read-out: IC50, lauric acid hydroxylase (4A); Rotstein et al. 1992; cited from earlier work
[5] = Toxicokinetics in the 28 day dog study of DIO-902 (with racemic ketoconazole group a); conditions: beagle, plasma; for AUC(0-t): AUC(0-12); for concentration at 0 h / concentration at 1 h / concentration at 2 h / concentration at 4 h / concentration at 8 h / concentration at 12 h: Drug concentration in plasma;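 as to all read-outs here: beagle dogs dosed orally once daily within a 28-day GLP study, 3 animals per sex per group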
[6] = system: P450 3A; conditions: read-out: IC50, progesterone 6β hydroxylase (3A); Rotstein et al. 1992; cited from earlier work
[7] = system: P450 2B1, 2B2, 1A1, 2C11, 3A; conditions: read-out: IC50, progesterone 16α hydroxylase (2B1, 2B2, 1A1, 2C11, 3A); Rotstein et al. 1992; cited from earlier work
[8] = target: P450 2C6 (Rattus norvegicus, UniProt P05178); conditions: Rotstein et al. 1992; read-out: IC50, progesterone 21 hydroxylase (2C6); cited from earlier work
[9] = dog, in vivo, 40 mg/kg
Procedure: As a control, a separate set of 2 male and 2 female dogs was treated with vehicle.

[10] = system: Candida albicans; experiment: Antifungal MIC; type: cell-based
[11] = system: Candida parapsilosis; experiment: Antifungal MIC; type: cell-based; conditions: Lodderomyces parapsilosis, read-out: MIC
[12] = female, po, 2 mg/kg, dogs, 2 mg/kg oral, day 1, F
[13] = female, po, 2 mg/kg, dogs, 2 mg/kg oral, day 28, F
[14] = female, po, 6.5 mg/kg, dogs, 6.5 mg/kg oral, day 28, F
[15] = female, po, 6.5 mg/kg, dogs, 6.5 mg/kg oral, day 1, F
[16] = female, po, 20 mg/kg, dogs, 20 mg/kg oral, day 28, F
[17] = female, po, 20 mg/kg, dogs, 20 mg/kg oral, day 1, F
[18] = male, po, 2 mg/kg, dogs, 2 mg/kg oral, day 28, M
[19] = male, po, 2 mg/kg, dogs, 2 mg/kg oral, day 1, M
[20] = male, po, 6.5 mg/kg, dogs, 6.5 mg/kg oral, day 28, M
[21] = male, po, 6.5 mg/kg, dogs, 6.5 mg/kg oral, day 1, M
[22] = male, po, 20 mg/kg, dogs, 20 mg/kg oral, day 1, M
[23] = male, po, 20 mg/kg, dogs, 20 mg/kg oral, day 28, M

Sequence of P450 2C6 (P05178 whole entry): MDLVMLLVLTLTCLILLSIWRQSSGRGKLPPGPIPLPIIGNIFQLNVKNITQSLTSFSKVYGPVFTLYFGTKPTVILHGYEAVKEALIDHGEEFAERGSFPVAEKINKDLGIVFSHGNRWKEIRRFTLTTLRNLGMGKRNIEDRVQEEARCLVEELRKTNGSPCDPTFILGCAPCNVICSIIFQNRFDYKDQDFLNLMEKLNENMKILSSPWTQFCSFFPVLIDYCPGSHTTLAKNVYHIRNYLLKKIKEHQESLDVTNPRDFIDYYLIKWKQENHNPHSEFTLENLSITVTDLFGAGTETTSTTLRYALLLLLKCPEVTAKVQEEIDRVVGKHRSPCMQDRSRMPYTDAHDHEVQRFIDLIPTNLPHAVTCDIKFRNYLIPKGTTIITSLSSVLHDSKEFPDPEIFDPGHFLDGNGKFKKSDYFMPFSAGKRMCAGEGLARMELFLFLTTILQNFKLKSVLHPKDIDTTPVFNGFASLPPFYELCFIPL

With `CC(=O)N1CCN(c2ccc(OC[C@@H]3CO[C@@](Cn4ccnc4)(c4ccc(Cl)cc4Cl)O3)cc2)CC1` [DIO-902, 2S,4R cis-1-acetyl-4-[4-[[2-(2,4-dichlorophenyl)-2-(1H-imidazol-1-ylmethyl)-1,3-dioxolan-4-yl]methoxyl]phenyl]piperazine] the “reduction in total white cell numbers” value [1] was 20%, the “genotoxicity, mouse lymphoma assay” value [2] was “negative” and the “total plasma concentration required to inhibit intrahepatic CYP7A” value [3] was 12 microM and approximately 6.3 microg/mL. For the same molecule, the IC50 [4] was over 100 µM, the Tmax ([5]; both, oral, 20 mg/kg, Tmax values, dogs, 2, 6.5 and 20 mg/kg, Day 1) was 1 to 8 h and the Tmax ([5]; both, oral, 20 mg/kg, Tmax values, dogs, 2, 6.5 and 20 mg/kg, Day 28) was 1 to 12 h. For the same molecule, the Cmax ([5]; both, po, 20 mg/kg/day, dogs, 20 mg/kg/day, day 28) was 9940 to 9950 ng/mL, the AUC(0-t) ([5]; female, po, 2 mg/kg, dogs, 2 mg/kg oral, day 1, F, n = 1) was 2570 ng·h/mL and the AUC(0-t) ([5]; female, po, 2 mg/kg, dogs, 2 mg/kg oral, day 28, F, n = 1) was 2760 ng·h/mL. It also gave a Cmax [5, 12] of 450 ng/mL, a Cmax [5, 13] of 750 ng/mL and a concentration at 0 h [5, 12] of under 250 ng/mL. The concentration at 1 h [5, 12] was under 250 ng/mL, the concentration at 2 h [5, 12] was 270 ng/mL and the concentration at 4 h [5, 12] was 280 ng/mL. For the same molecule, the concentration at 8 h [5, 12] was under 250 ng/mL, the concentration at 12 h [5, 12] was under 250 ng/mL and the concentration at 0 h [5, 13] was under 250 ng/mL. It also gave a concentration at 1 h [5, 13] of 290 ng/mL, a concentration at 2 h [5, 13] of 520 ng/mL and a concentration at 4 h [5, 13] of 300 ng/mL. For the same molecule, the concentration at 8 h [5, 13] was under 250 ng/mL, the concentration at 12 h [5, 13] was under 250 ng/mL and the Tmax ([5]; female, po, 2 mg/kg, Tmax Range, dogs, 2 mg/kg oral, day 1, F) was 2 to 4 h. The Tmax ([5]; female, po, 2 mg/kg, Tmax Range, dogs, 2 mg/kg oral, day 28, F) was 1 to 8 h, the AUC(0-t) ([5]; female, po, 6.5 mg/kg, dogs, 6.5 mg/kg oral, day 1, F, n = 1) was 4700 ng·h/mL and the AUC(0-t) [5, 14] was 12900 ng·h/mL. For the same molecule, the Cmax [5, 15] was 2570 ng/mL, the Cmax [5, 14] was 2410 ng/mL and the concentration at 0 h [5, 15] was under 250 ng/mL. The concentration at 1 h [5, 15] was under 250 ng/mL, the concentration at 2 h [5, 15] was 440 ng/mL and the concentration at 4 h [5, 15] was 2320 ng/mL. The concentration at 8 h [5, 15] was 500 ng/mL, the concentration at 12 h [5, 15] was under 250 ng/mL and the concentration at 0 h [5, 14] was under 250 ng/mL. The concentration at 1 h [5, 14] was 250 ng/mL, the concentration at 2 h [5, 14] was 1250 ng/mL and the concentration at 4 h [5, 14] was 1850 ng/mL. For the same molecule, the concentration at 8 h [5, 14] was 1270 ng/mL, the concentration at 12 h [5, 14] was 340 ng/mL and the Tmax ([5]; female, po, 6.5 mg/kg, Tmax Range, dogs, 6.5 mg/kg oral, day 1, F) was 2 to 4 h. For the same molecule, the Tmax ([5]; female, po, 6.5 mg/kg, Tmax Range, dogs, 6.5 mg/kg oral, day 28, F) was 2 to 8 h, the AUC(0-t) ([5]; female, po, 20 mg/kg, dogs, 20 mg/kg oral, day 1, F, n = 2) was 80600 ng·h/mL and the AUC(0-t) [5, 16] was 77800 ng·h/mL. It also gave a Cmax [5, 17] of 14700 ng/mL, a Cmax [5, 16] of 9950 ng/mL and a concentration at 0 h [5, 17] of under 250 ng/mL. It also gave a concentration at 1 h [5, 17] of under 250 ng/mL, a concentration at 2 h [5, 17] of 650 ng/mL and a concentration at 4 h [5, 17] of 9720 ng/mL. It also gave a concentration at 8 h [5, 17] of 9950 ng/mL, a concentration at 12 h [5, 17] of 5440 ng/mL and a concentration at 0 h [5, 16] of 2880 ng/mL. It also gave a concentration at 1 h [5, 16] of 1780 ng/mL, a concentration at 2 h [5, 16] of 2430 ng/mL and a concentration at 4 h [5, 16] of 6420 ng/mL. For the same molecule, the concentration at 8 h [5, 16] was 9830 ng/mL, the concentration at 12 h [5, 16] was 6530 ng/mL and the Tmax ([5]; female, po, 20 mg/kg, Tmax Range, dogs, 20 mg/kg oral, day 1, F) was 4 to 8 h. The Tmax ([5]; female, po, 20 mg/kg, Tmax Range, dogs, 20 mg/kg oral, day 28, F) was 8 to 12 h, the AUC(0-t) ([5]; male, po, 2 mg/kg, dogs, 2 mg/kg oral, day 1, M, n = 1) was 2390 ng·h/mL and the AUC(0-t) [5, 18] was 3260 ng·h/mL. For the same molecule, the Cmax [5, 19] was 510 ng/mL, the Cmax [5, 18] was 680 ng/mL and the concentration at 0 h [5, 19] was under 250 ng/mL. It also gave a concentration at 1 h [5, 19] of 400 ng/mL, a concentration at 2 h [5, 19] of 450 ng/mL and a concentration at 4 h [5, 19] of under 250 ng/mL. For the same molecule, the concentration at 8 h [5, 19] was under 250 ng/mL, the concentration at 12 h [5, 19] was under 250 ng/mL and the concentration at 0 h [5, 18] was under 250 ng/mL. For the same molecule, the concentration at 1 h [5, 18] was 660 ng/mL, the concentration at 2 h [5, 18] was 540 ng/mL and the concentration at 4 h [5, 18] was 380 ng/mL. The concentration at 8 h [5, 18] was under 250 ng/mL, the concentration at 12 h [5, 18] was under 250 ng/mL and the Tmax ([5]; male, po, 2 mg/kg, Tmax Range, dogs, 2 mg/kg oral, day 1, M) was 1 to 2 h. It also gave a Tmax ([5]; male, po, 2 mg/kg, Tmax Range, dogs, 2 mg/kg oral, day 28, M) of 1 to 4 h, an AUC(0-t) ([5]; male, po, 6.5 mg/kg, dogs, 6.5 mg/kg oral, day 1, M, n = 2) of 12200 ng·h/mL and an AUC(0-t) [5, 20] of 14600 ng·h/mL. It also gave a Cmax [5, 21] of 2000 ng/mL, a Cmax [5, 20] of 2010 ng/mL and a concentration at 0 h [5, 21] of under 250 ng/mL. For the same molecule, the concentration at 1 h [5, 21] was 1190 ng/mL, the concentration at 2 h [5, 21] was 1620 ng/mL and the concentration at 4 h [5, 21] was 1250 ng/mL. For the same molecule, the concentration at 8 h [5, 21] was 410 ng/mL, the concentration at 12 h [5, 21] was 400 ng/mL and the concentration at 0 h [5, 20] was under 250 ng/mL. The concentration at 1 h [5, 20] was 1170 ng/mL, the concentration at 2 h [5, 20] was 1390 ng/mL and the concentration at 4 h [5, 20] was 1540 ng/mL. For the same molecule, the concentration at 8 h [5, 20] was 1330 ng/mL, the concentration at 12 h [5, 20] was 880 ng/mL and the Tmax ([5]; male, po, 6.5 mg/kg, Tmax Range, dogs, 6.5 mg/kg oral, day 1, M) was 1 to 4 h. It also gave a Tmax ([5]; male, po, 6.5 mg/kg, Tmax Range, dogs, 6.5 mg/kg oral, day 28, M) of 1 to 8 h, an AUC(0-t) [5, 22] of 60600 ng·h/mL and an AUC(0-t) [5, 23] of 80000 ng·h/mL. For the same molecule, the Cmax [5, 22] was 9380 ng/mL, the Cmax [5, 23] was 9940 ng/mL and the concentration at 0 h [5, 22] was under 250 ng/mL. For the same molecule, the concentration at 1 h [5, 22] was 7050 ng/mL, the concentration at 2 h [5, 22] was 8300 ng/mL and the concentration at 4 h [5, 22] was 6150 ng/mL. It also gave a concentration at 8 h [5, 22] of 2920 ng/mL, a concentration at 12 h [5, 22] of 6740 ng/mL and a concentration at 0 h [5, 23] of 1190 ng/mL. The concentration at 1 h [5, 23] was 9130 ng/mL, the concentration at 2 h [5, 23] was 9780 ng/mL and the concentration at 4 h [5, 23] was 8170 ng/mL. The concentration at 8 h [5, 23] was 5860 ng/mL, the concentration at 12 h [5, 23] was 4250 ng/mL and the Tmax ([5]; male, po, 20 mg/kg, Tmax Range, dogs, 20 mg/kg oral, day 1, M) was 1 to 4 h. The Tmax ([5]; male, po, 20 mg/kg, Tmax Range, dogs, 20 mg/kg oral, day 28, M) was 2 to 4 h, the IC50 [6] was 1.3 µM and the IC50 [7] was 84 µM. The IC50 [8] was 9 µM, the clinical signs [9] was “vomiting” and the MIC ([10]; DSM11225, DSM strain 11225, 48 h, read-out: MIC) was under 0.015 µg/mL. For the same molecule, the MIC ([10]; DSM11943, DSM strain 11943, 48 h, read-out: MIC) was under 0.015 µg/mL, the MIC ([10]; DSM11944, DSM strain 11944, 48 h, read-out: MIC) was under 0.015 µg/mL and the MIC ([10]; DSM11945, DSM strain 11945, 48 h, read-out: MIC) was 0.03 µg/mL (≈ 0.0565 µM). For the same molecule, the MIC ([10]; DSM11948, DSM strain 11948, 48 h, read-out: MIC) was under 0.015 µg/mL, the MIC ([10]; DSM11949, 48 h) was 0.125 µg/mL (≈ 0.235 µM) and the MIC ([10]; strain 98-St-00799, 48 h, read-out: MIC) was under 0.015 µg/mL. It also gave an MIC ([11]; DSM05784, DSM strain 05784, 48 h) of 0.03 µg/mL (≈ 0.0565 µM) and an MIC ([11]; DSM11224, DSM strain 11224, 48 h) of 0.03 µg/mL (≈ 0.0565 µM).
